Peptide text beside a SMILES is read from it. * marks the point of attachment. Biotin = O=C1N[C@H]2[C@H](CS[C@H]2CCCCC(=O)*)N1
Experiments:
[1] = system: T98G human glioblastoma cells; test: Peptide incorporation into T98G cells (immunocytochemistry, cell counting); assay type: cell-based
Method in brief: (§1)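 Cells on cover slips were cultured 6 h with 10 μM biotinylated peptide, permeabilized, and stained with anti-β-tubulin plus fluorescent streptavidin. By fluorescence/confocal microscopy, ≥200 cells per experiment were scored for peptide uptake and for a normal versus destroyed microtubule network; at least three repeats.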

[2] = system: T98G human glioblastoma cells; test: Disintegration of the microtubule network in T98G cells (anti-tubulin immunostaining, cell counting); assay type: cell-based; details: T98G cells, 10 µM biotinylated peptide, 6 hours; anti-tubulin immunostaining; minimum 200 cells per experiment; mean ± S.E.M., triplicated
Method in brief: as §1

[3] = Secondary structure estimation from CD spectra; assay type: physicochemical; details: Reed's reference set
Procedure: (§2) Circular dichroism (CD) spectra were measured in a J-810 CD spectrometer (Jasco, Japan) in step mode (bandwidth: 2 nm; interval: 0.1 nm; response time: 0.125 s). The spectra were averaged over 3 scans to increase the signal to noise ratio. To optimize the measurements, a 1 cm×0.2 cm mini-quartz cell with four windows (Hellema, Germany) was used in such a way that the spectra from 260 to 200 nm were measured with a 1 cm pathlength and those between 220 and 185 nm with 0.2 cm pathlength. After normalization for pathlength (1 cm), the superimposition of two separated spectra in the 200–220 nm region was verified and the entire spectra reconstituted. The temperature of measurement was controlled with a Peltier-effect temperature controller, and was usually 20°C. The structural stability of peptides was studied by measuring the variation in CD signal at 220 nm (bandwidth: 10 nm; interval: 1 s; response time: 0.5 s; pathlength: 1 cm) when the temperature was increased by 1°C/min from 20 to 85°C. All the CD experiments were performed with 20 µM peptide under 3 buffer conditions: pure water, 2 mM SDS and 10 mM potassium phosphate pH 7.4 with 200 mM KF.
The secondary structures were estimated from the CD spectra with Jasco secondary structure estimation software. The spectra from […] were decomposed to α-helix, β-sheet, β-turn and random coil elements using either Reed's or Yang's reference set as reference spectrum of each element as described, [38]. We usually obtained better fits using Reed's reference.

[4] = system: Human adrenal carcinoma SW13 cells; test: Effect on MT network of SW13 cells (immunocytochemistry); assay type: cell-based; details: 10 µM, 6 hours
Procedure: (§3) Figure 1 Internalization and effects on glioblastoma T98G cells of the wild type peptide NFL-TBS.40-63 and peptides from the alanine scan. (A): Human glioblastoma T98G cells were incubated in the presence of different peptides at 10 µM during 6 hours. MTs were detected by immunostaining using an anti-tubulin antibody (red), and biotinylated peptides were detected using Alexa-labeled avidin (green). While the original NFL-TBS.40-63 peptide is able to penetrate in these cells, the replacement of valine-14 by alanine typically abolished this property. White bars, 20 µm. (B) Human adrenal carcinoma SW13 cells were incubated in the presence of NFL-TBS.40-63 peptide (10 µM, 6 hours). MTs appear in red, peptide in green, nuclei in blue. White bars, 20 µm. (C): We quantified by microscopy the percentage of T98G cells containing the peptide and those with a destroyed MT network. Experiments were triplicated and a minimum of 200 cells was examined in each experiment. Data are presented as mean and S.E.M. (bars). Asterisks indicate significant level versus control: * p<0.05; ** p<0.005; *** p<0.001. As glioblastoma cells are known to have multiple mutations and abnormalities, the shaded area corresponds to the percentage of cells where MTs are disorganized even in the absence of peptide.
(§4) Cells were plated on cover slips and cultured in media containing biotinylated peptides (10 µM) for 6 hours. […]

[5] = system: Human adrenal carcinoma SW13 cells; test: Peptide entry into SW13 cells (immunocytochemistry); assay type: cell-based; details: 10 µM, 6 hours
Procedure: as §3, §4

[6] = Structural (thermal) stability by circular dichroism at 220 nm; assay type: physicochemical
Procedure: as §2, with “The structural stability of peptides was studied by measuring the variation in CD signal at 220 nm (bandwidth: 10 nm; interval: 1 s; response time: 0.5 s; pathlength: 1 cm) when the temperature was increased by 1°C/min from 20 to 85°C.” left out

[7] = KF/phosphate buffer pH 7.4, 20 µM

## CC(C)C[C@H](NC(=O)[C@H](CO)NC(=O)[C@H](CO)NC(=O)[C@H](CO)NC(=O)[C@@H](NC(=O)[C@@H]1CCCN1C(=O)[C@H](C)NC(=O)[C@H](CO)NC(=O)[C@H](Cc1ccc(O)cc1)NC(=O)[C@H](CO)NC(=O)[C@H](CO)NC(=O)[C@H](Cc1ccc(O)cc1)NC(=O)CCCC[C@@H]1SC[C@@H]2NC(=O)N[C@@H]21)C(C)C)C(=O)N[C@@H](CO)C(=O)N[C@H](C(=O)N[C@@H](CCCNC(=N)N)C(=O)N[C@@H](CCCNC(=N)N)C(=O)N[C@@H](CO)C(=O)N[C@@H](Cc1ccc(O)cc1)C(=O)N[C@@H](CO)C(=O)N[C@@H](CO)C(=O)N[C@@H](CO)C(=O)N[C@@H](CO)C(=O)NCC(=O)N[C@@H](CO)C(N)=O)C(C)C [NFL-TBS.40-63] (Biotin-YSSYSAPVSSSLSVRRSYSSSSGS-NH2)
[1]; T98G cells, 10 µM biotinylated peptide, 6 hours, Alexa-labeled avidin/streptavidin fluorescence microscopy, minimum 200 cells per experiment, mean ± S.E.M., triplicated
  Peptide incorporation (% of cells): 51.2±4.2 % of cells
[1]; peptide heated in KF/phosphate buffer (thermally unfolded)
  Cell penetration of the peptide once heated: could not penetrate into the cells
[2]
  Disintegration of MT (% of cells): 58.4±2.3 % of cells
[3]; 2 mM SDS, 20 µM
  random coil content: 40%
  α-helix content: 20%
  β-sheet content: 40%
[3]; [7]
  random coil content: 36%
  α-helix content: 7%
  β-sheet content: 56%
[3]; pure water, 20 µM, 20°C
  random coil content: 75%
  β-sheet content: 25%
[4]
  Effect on MT network of SW13 cells: without affecting the MT network
[5]
  Entry into SW13 cells: enters in SW13 cells
[6]; CD 220 nm, KF/phosphate buffer, 70 to 10°C at 1°C per min and after 12 hours at 20°C
  Refolding on lowering temperature: no refolding was observed
[6]; CD signal at 220 nm, 20 µM peptide, KF/phosphate buffer (10 mM potassium phosphate pH 7.4, 200 mM KF), 1°C/min
  Tm of thermal unfolding: about 40 °C
[6]; CD, 20 µM peptide in 2 mM SDS, up to 70°C
  Structural stability with increasing temperature: stable

— paper PMC3494675, “Structure-Function Analysis of the Glioma Targeting NFL-TBS.40-63 Peptide Corresponding to the Tubulin-Binding Site on the Light Neurofilament Subunit” (PLoS ONE, 2012)
